Measurements reported in the supplement of paper PMC5908809.

Key:
[1] = test system: normal NK cells expanded with K562-aAPC; test: percent inhibition of viability; higher = more inhibition; details: 72 h, IL-2 2.5 ng/mL
Protocol: (§1)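 Drug sensitivity and resistance testing on K562-aAPC-expanded normal NK cells: 5 concentrations (10-fold steps over a 10,000-fold range), 72 h at 37 °C, viability by CellTiter-Glo normalised to DMSO and benzethonium chloride controls; DSS from the fitted curve.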

[2] = test system: DERL-7 (IL-2 2.5 ng/mL); test: as above; details: 72 h
[3] = test system: IMC-1 (IL-2 20 ng/mL); test: as above; details: 72 h
[4] = test system: KAI3 (IL-2 2.5 ng/mL); test: as above; details: 72 h
[5] = test system: KHYG-1 (IL-2 2.5 ng/mL); test: as above; details: 72 h
[6] = test system: NK-92 (IL-2 2.5 ng/mL); test: as above; details: 72 h
[7] = test system: NK-YS (IL-2 2.5 ng/mL); test: as above; details: 72 h
[8] = test system: NKL (IL-2 2.5 ng/mL); test: as above; details: 72 h
[9] = test system: SNK-6 (IL-2 2.5 ng/mL); test: as above; details: 72 h
[10] = test system: YT (IL-2 2.5 ng/mL); test: as above; details: 72 h
[11] = test system: normal primary NK cells, pool 1 (3 donors) (IL-2 2.5 ng/mL); test: as above; details: 72 h
[12] = test system: normal primary NK cells, pool 1 (3 donors), resting (IL-2 0 ng/mL); test: as above; details: 72 h
[13] = test system: normal primary NK cells, pool 2 (3 donors) (IL-2 2.5 ng/mL); test: as above; details: 72 h
[14] = test system: normal primary NK cells, pool 3 (3 donors) (IL-2 2.5 ng/mL); test: as above; details: 72 h
[15] = test system: normal NK cells expanded with K562-aAPC; test: drug sensitivity score (DSS) (DSS units); higher = more sensitive; extreme values may be limits of the assay; details: 72 h; IL-2 2.5 ng/mL
Protocol: as §1

[16] = test system: DERL-7 (IL-2 2.5 ng/mL); test: as above; details: 72 h
[17] = test system: IMC-1 (IL-2 20 ng/mL); test: as above; details: 72 h
[18] = test system: KAI3 (IL-2 2.5 ng/mL); test: as above; details: 72 h
[19] = test system: KHYG-1 (IL-2 2.5 ng/mL); test: as above; details: 72 h
[20] = test system: NK-92 (IL-2 2.5 ng/mL); test: as above; details: 72 h
[21] = test system: NK-YS (IL-2 2.5 ng/mL); test: as above; details: 72 h
[22] = test system: NKL (IL-2 2.5 ng/mL); test: as above; details: 72 h
[23] = test system: SNK-6 (IL-2 2.5 ng/mL); test: as above; details: 72 h
[24] = test system: YT (IL-2 2.5 ng/mL); test: as above; details: 72 h
[25] = test system: normal primary NK cells, pool 1 (3 donors) (IL-2 2.5 ng/mL); test: as above; details: 72 h
[26] = test system: normal primary NK cells, pool 1 (3 donors), resting (IL-2 0 ng/mL); test: as above; details: 72 h
[27] = test system: normal primary NK cells, pool 2 (3 donors) (IL-2 2.5 ng/mL); test: as above; details: 72 h
[28] = test system: normal primary NK cells, pool 3 (3 donors) (IL-2 2.5 ng/mL); test: as above; details: 72 h

SMILES: Clc1ccc(C(c2ccccc2Cl)C(Cl)Cl)cc1 (stereo not drawn) [Mitotane] (max concentration tested 10000 nM)
- percent inhibition of viability ([1]; 1 nM): -3.47%
- percent inhibition of viability ([1]; 10 nM): -5.5%
- percent inhibition of viability ([1]; 100 nM): -2.42%
- percent inhibition of viability ([1]; 1000 nM): -6.05%
- percent inhibition of viability ([1]; 10000 nM): -4.65%
- percent inhibition of viability ([2]; 1 nM): -3.98%
- percent inhibition of viability ([2]; 10 nM): -2.6%
- percent inhibition of viability ([2]; 100 nM): -1.88%
- percent inhibition of viability ([2]; 1000 nM): -5.27%
- percent inhibition of viability ([2]; 10000 nM): 1.52%
- percent inhibition of viability ([3]; 1 nM): -4%
- percent inhibition of viability ([3]; 10 nM): -2.56%
- percent inhibition of viability ([3]; 100 nM): -9%
- percent inhibition of viability ([3]; 1000 nM): -5.63%
- percent inhibition of viability ([3]; 10000 nM): -8.85%
- percent inhibition of viability ([4]; 1 nM): -6.14%
- percent inhibition of viability ([4]; 10 nM): -3.83%
- percent inhibition of viability ([4]; 100 nM): -3.7%
- percent inhibition of viability ([4]; 1000 nM): -6.65%
- percent inhibition of viability ([4]; 10000 nM): -4.73%
- percent inhibition of viability ([5]; 1 nM): -5.54%
- percent inhibition of viability ([5]; 10 nM): -6.16%
- percent inhibition of viability ([5]; 100 nM): -6.75%
- percent inhibition of viability ([5]; 1000 nM): -7.76%
- percent inhibition of viability ([5]; 10000 nM): -6.11%
- percent inhibition of viability ([6]; 1 nM): -11.9%
- percent inhibition of viability ([6]; 10 nM): -11.6%
- percent inhibition of viability ([6]; 100 nM): -10.9%
- percent inhibition of viability ([6]; 1000 nM): -14.2%
- percent inhibition of viability ([6]; 10000 nM): -13.7%
- percent inhibition of viability ([7]; 1 nM): -3.11%
- percent inhibition of viability ([7]; 10 nM): -4.91%
- percent inhibition of viability ([7]; 100 nM): -8.11%
- percent inhibition of viability ([7]; 1000 nM): -1.41%
- percent inhibition of viability ([7]; 10000 nM): -4.03%
- percent inhibition of viability ([8]; 1 nM): -23.5%
- percent inhibition of viability ([8]; 10 nM): -31.7%
- percent inhibition of viability ([8]; 100 nM): -25.8%
- percent inhibition of viability ([8]; 1000 nM): -21.9%
- percent inhibition of viability ([8]; 10000 nM): -16.6%
- percent inhibition of viability ([9]; 1 nM): 11.9%
- percent inhibition of viability ([9]; 10 nM): 12.4%
- percent inhibition of viability ([9]; 100 nM): -5.92%
- percent inhibition of viability ([9]; 1000 nM): -1.09%
- percent inhibition of viability ([9]; 10000 nM): -8.81%
- percent inhibition of viability ([10]; 1 nM): -5.71%
- percent inhibition of viability ([10]; 10 nM): -7.2%
- percent inhibition of viability ([10]; 100 nM): -6.08%
- percent inhibition of viability ([10]; 1000 nM): -5.64%
- percent inhibition of viability ([10]; 10000 nM): -3.1%
- percent inhibition of viability ([11]; 1 nM): -4.65%
- percent inhibition of viability ([11]; 10 nM): -4.88%
- percent inhibition of viability ([11]; 100 nM): 5.61%
- percent inhibition of viability ([11]; 1000 nM): -1.23%
- percent inhibition of viability ([11]; 10000 nM): -0.57%
- percent inhibition of viability ([12]; 1 nM): -7.77%
- percent inhibition of viability ([12]; 10 nM): -15.2%
- percent inhibition of viability ([12]; 100 nM): 11.9%
- percent inhibition of viability ([12]; 1000 nM): -9.1%
- percent inhibition of viability ([12]; 10000 nM): 7.07%
- percent inhibition of viability ([13]; 1 nM): -6.28%
- percent inhibition of viability ([13]; 10 nM): -4.83%
- percent inhibition of viability ([13]; 100 nM): -5.23%
- percent inhibition of viability ([13]; 1000 nM): -1.37%
- percent inhibition of viability ([13]; 10000 nM): -4.6%
- percent inhibition of viability ([14]; 1 nM): -8.66%
- percent inhibition of viability ([14]; 10 nM): -9.61%
- percent inhibition of viability ([14]; 100 nM): -7%
- percent inhibition of viability ([14]; 1000 nM): -8.07%
- percent inhibition of viability ([14]; 10000 nM): 0.73%
- drug sensitivity score [15]: 0
- drug sensitivity score [16]: 0
- drug sensitivity score [17]: 0
- drug sensitivity score [18]: 0
- drug sensitivity score [19]: 0
- drug sensitivity score [20]: 0
- drug sensitivity score [21]: 0
- drug sensitivity score [22]: 0
- drug sensitivity score [23]: 0
- drug sensitivity score [24]: 0
- drug sensitivity score [25]: 0
- drug sensitivity score [26]: 0
- drug sensitivity score [27]: 0
- drug sensitivity score [28]: 0

SMILES: CNC(=O)c1ccc(N2C(=S)N(c3ccc(C#N)c(C(F)(F)F)c3)C(=O)C23CCC3)cc1F [RD162] (max concentration tested 10000 nM)
- percent inhibition of viability ([1]; 1 nM): -8.24%
- percent inhibition of viability ([1]; 10 nM): -9.67%
- percent inhibition of viability ([1]; 100 nM): -4.97%
- percent inhibition of viability ([1]; 1000 nM): 7.5%
- percent inhibition of viability ([1]; 10000 nM): 1.43%
- percent inhibition of viability ([2]; 1 nM): 2.54%
- percent inhibition of viability ([2]; 10 nM): -3.32%
- percent inhibition of viability ([2]; 100 nM): -8.09%
- percent inhibition of viability ([2]; 1000 nM): -8.58%
- percent inhibition of viability ([2]; 10000 nM): -5.45%
- percent inhibition of viability ([3]; 1 nM): -5.69%
- percent inhibition of viability ([3]; 10 nM): -2.87%
- percent inhibition of viability ([3]; 100 nM): -1.68%
- percent inhibition of viability ([3]; 1000 nM): 2.9%
- percent inhibition of viability ([3]; 10000 nM): 17.6%
- percent inhibition of viability ([4]; 1 nM): -2.44%
- percent inhibition of viability ([4]; 10 nM): -0.44%
- percent inhibition of viability ([4]; 100 nM): 1.83%
- percent inhibition of viability ([4]; 1000 nM): 0.32%
- percent inhibition of viability ([4]; 10000 nM): 18.6%
- percent inhibition of viability ([5]; 1 nM): -6.85%
- percent inhibition of viability ([5]; 10 nM): -6.64%
- percent inhibition of viability ([5]; 100 nM): -5.8%
- percent inhibition of viability ([5]; 1000 nM): 2.74%
- percent inhibition of viability ([5]; 10000 nM): 10.4%
- percent inhibition of viability ([6]; 1 nM): -11.3%
- percent inhibition of viability ([6]; 10 nM): 5.25%
- percent inhibition of viability ([6]; 100 nM): -15.2%
- percent inhibition of viability ([6]; 1000 nM): -0.07%
- percent inhibition of viability ([6]; 10000 nM): 33.8%
- percent inhibition of viability ([7]; 1 nM): -12.1%
- percent inhibition of viability ([7]; 10 nM): -6.94%
- percent inhibition of viability ([7]; 100 nM): -9.33%
- percent inhibition of viability ([7]; 1000 nM): 1.8%
- percent inhibition of viability ([7]; 10000 nM): 16.9%
- percent inhibition of viability ([8]; 1 nM): -11.3%
- percent inhibition of viability ([8]; 10 nM): -5.72%
- percent inhibition of viability ([8]; 100 nM): -0.58%
- percent inhibition of viability ([8]; 1000 nM): 7.33%
- percent inhibition of viability ([8]; 10000 nM): 23.9%
- percent inhibition of viability ([9]; 1 nM): -1.99%
- percent inhibition of viability ([9]; 10 nM): -21.8%
- percent inhibition of viability ([9]; 100 nM): 2.57%
- percent inhibition of viability ([9]; 1000 nM): -8.56%
- percent inhibition of viability ([9]; 10000 nM): 1.37%
- percent inhibition of viability ([10]; 1 nM): -8.11%
- percent inhibition of viability ([10]; 10 nM): -4.09%
- percent inhibition of viability ([10]; 100 nM): -6.39%
- percent inhibition of viability ([10]; 1000 nM): 3.85%
- percent inhibition of viability ([10]; 10000 nM): 24.7%
- percent inhibition of viability ([11]; 1 nM): -2.22%
- percent inhibition of viability ([11]; 10 nM): 4.97%
- percent inhibition of viability ([11]; 100 nM): 8.69%
- percent inhibition of viability ([11]; 1000 nM): 3.69%
- percent inhibition of viability ([11]; 10000 nM): 20.8%
- percent inhibition of viability ([12]; 1 nM): 1.38%
- percent inhibition of viability ([12]; 10 nM): 18.7%
- percent inhibition of viability ([12]; 100 nM): 13.6%
- percent inhibition of viability ([12]; 1000 nM): 12.9%
- percent inhibition of viability ([12]; 10000 nM): 40.5%
- percent inhibition of viability ([13]; 1 nM): -7.24%
- percent inhibition of viability ([13]; 10 nM): -1.28%
- percent inhibition of viability ([13]; 100 nM): 0.84%
- percent inhibition of viability ([13]; 1000 nM): 3.39%
- percent inhibition of viability ([13]; 10000 nM): 11.3%
- percent inhibition of viability ([14]; 1 nM): -4.05%
- percent inhibition of viability ([14]; 10 nM): -1.08%
- percent inhibition of viability ([14]; 100 nM): 1.71%
- percent inhibition of viability ([14]; 1000 nM): -2.99%
- percent inhibition of viability ([14]; 10000 nM): 3.64%
- drug sensitivity score [15]: 0
- drug sensitivity score [16]: 0
- drug sensitivity score [17]: 0.76
- drug sensitivity score [18]: 0.52
- drug sensitivity score [19]: 0.01
- drug sensitivity score [20]: 1.56
- drug sensitivity score [21]: 0.56
- drug sensitivity score [22]: 1.84
- drug sensitivity score [23]: 0
- drug sensitivity score [24]: 1.51
- drug sensitivity score [25]: 0.72
- drug sensitivity score [26]: 5.08
- drug sensitivity score [27]: 0.09
- drug sensitivity score [28]: 0
